# Assay results published in patent US20230180804A1, “FLAVOR COMPOSITION, AND FOOD AND BEVERAGE” (TAKASAGO INTERNATIONAL CORPORATION, priority 2020, published 2023).
# Assays:
# [1] = Sensory evaluation of p-cresol odor masking in p-cresol-containing citrus-flavored beverage; conditions: for p-Cresol Odor Intensity: beverage with 50 ppb p-cresol, average score of 7 panelists, scale 0-4; for concentration at which the compound masks the p-cresol odor and does not affect the citrus flavor, lower limit / concentration at which the compound masks the p-cresol odor and does not affect the citrus flavor, upper limit: citrus-flavored beverage with 50 ppb p-cresol
# Description: To 2 g of lemon flavor obtained by making lemon oil into an essence, purified water was added to adjust the total amount to 1000 ml. To this citrus-flavored beverage, p-cresol adjusted to a concentration of 1% by mass with 95% ethanol was added to 50 ppb in the citrus-flavored beverage. To this p-cresol-containing citrus-flavored beverage, 1-oxacycloheptadecan-7-en-2-one was added at the concentrations presented in Table 1 to confirm the p-cresol odor intensity (masking effect) and the influence on the citrus flavor of each sample.
# For the test, seven skilled panelists were selected to perform sensory evaluation. The p-cresol odor intensity of the p-cresol-containing citrus-flavored beverage without added l-oxacycloheptadecan-7-en-2-one was determined as “Rating: 4,” and the p-cresol odor intensity of the p-cresol-free citrus-flavored beverage was determined as “Rating: 0,” and the p-cresol odor intensity (masking effect) of each sample was relatively evaluated according to the following evaluation criteria.
# In addition, the influence of the citrus-flavored beverage on the citrus flavor was evaluated absolutely according to the following evaluation criteria for the presence or absence of off- flavor other than p-cresol odor and citrus flavor (Off-Flavor Intensity).
# The results are as in Table 1, presenting the average score of the evaluation results for each panelist.
# olfactory receptor OR9Q2 = target: T1, olfactory receptor OR9Q2 (Homo sapiens, UniProt Q8NGE9); test: OR9Q2 response inhibitory effect for p-cresol, luciferase reporter gene assay; assay type: cell-based; conditions: p-cresol 100 µM mixed with various concentrations of compound; cells expressing OR9Q2; ratio of Fold Increase value (FIGS. 1 to 11)
# T1 construct: 20 N-terminal amino acid residues of bovine rhodopsin (Rho tag); expressed in transfected cells; host or cells: HEK293T
# T1 sequence (Q8NGE9 1-314): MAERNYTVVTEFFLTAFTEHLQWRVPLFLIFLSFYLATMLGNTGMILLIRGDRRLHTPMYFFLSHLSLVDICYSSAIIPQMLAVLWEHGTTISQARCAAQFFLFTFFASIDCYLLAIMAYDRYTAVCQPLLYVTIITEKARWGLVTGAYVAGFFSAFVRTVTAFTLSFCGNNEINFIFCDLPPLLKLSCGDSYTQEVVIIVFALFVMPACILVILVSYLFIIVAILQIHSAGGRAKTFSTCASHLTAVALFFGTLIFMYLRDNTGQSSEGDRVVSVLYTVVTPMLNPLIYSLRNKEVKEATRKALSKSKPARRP
# Description: The human olfactory receptor gene was obtained by cloning from Human Genomic DNA: Female (Promega) by PCR method based on the sequence information registered in GenBank. The 20 N-terminal amino acid residues of bovine rhodopsin were incorporated into the pME18S vector, and the obtained human olfactory receptor gene was incorporated downstream thereof to obtain a human olfactory receptor gene expression vector.
# In 10 µL of Opti-MEM I (gibco), 0.05 µg of human olfactory receptor gene expression vector, 0.01 µg of RTP1S vector, 0.01 µg firefly luciferase vector pGL4.29 (Promega) containing cAMP response element promoter, and 0.005 µg of Renilla luciferase vector pGL4.74 (Promega) containing thymidine kinase promoter were dissolved to prepare a gene solution (for one well). HEK293T cells were seeded at 100 µL each in a 96-well plate (Biocoat, Coming) at the number of cells reaching confluence after 24 hours, and a gene solution was added to each well by the lipofection method according to the usage of Lipofectamine 3000 to introduce genes into the cells, and the cells were cultured at 37° C. in a 5% carbon dioxide atmosphere for 24 hours.
# After removing the culture medium, the resultant was prepared with CD293 (gibco) medium ([…] added) so as to have a concentration for measuring the aroma substance to be tested, 50 µL of which was added each and stimulated for 3 hours, and then luciferase activity was measured according to the method of using the Dual-Luciferase Reporter Assay System (Promega). The response intensity of the olfactory receptor polypeptide was expressed as a Fold Increase value obtained by dividing the luciferase activity produced by stimulating the aroma substance by the luciferase activity produced in the test system containing no aroma substance.
# p-Cresol at 100 µM was mixed with various concentrations of 1-oxacycloheptadecan-7-en-2-one, 1-oxacycloheptadecan-8-en-2-one, isoambrettolide, pentalide, muscone, civetone, 8-2-decenolactone, cinnamic aldehyde, […], sclareolide, and ethyl maltol, and receptor responses were measured in cells expressing OR9Q2. The ratio of the Fold Increase value in the test in which each compound was mixed was calculated, where the Fold Increase value in the test in none of these compounds was mixed was set to 100. FIGS. 1 to 11 present the results.
# [2] = Sensory evaluation of p-cresol odor masking in p-cresol-containing citrus-flavored confectionery (tablet); conditions: for p-Cresol Odor Intensity: tablet with 200 ppb p-cresol, average score of 6 panelists, scale 0-4
# Description: Lemon cold-pressed oil was added to the tablet having the composition presented in Table A at a concentration of 1 % by mass, and medium chain fatty acid triglycerides (MCT) was used to adjust p-cresol to a concentration of 0.1%, which was further added so as to reach 200 ppb in the citrus flavored confectionery. To this p-cresol-containing citrus-flavored confectionery, 1-oxacycloheptadecan-7-en-2-one was added at the concentrations presented in Table 12, and then tableting was performed to confirm the p-cresol odor intensity (masking effect) and the influence on the citrus flavor of each sample.
# Six skilled panelists were selected to perform the same sensory evaluation as in Example 1. The results are as in Table 12, presenting the average score of the evaluation results for each panelist.
# [3] = citrus-flavored confectionery (tablet) with 200 ppb p-cresol
Structure (SMILES),p-Cresol Odor Intensity ([1]; 1 ppb added) [points],p-Cresol Odor Intensity ([1]; 1 ppm added) [points],p-Cresol Odor Intensity ([1]; 10 ppb added) [points],p-Cresol Odor Intensity ([1]; 10 ppm added) [points],p-Cresol Odor Intensity ([1]; 10 ppt added) [points],p-Cresol Odor Intensity ([1]; 100 ppb added) [points],p-Cresol Odor Intensity ([1]; 100 ppm added) [points],p-Cresol Odor Intensity ([1]; 100 ppt added) [points],"concentration at which the compound masks the p-cresol odor and does not affect the citrus flavor, lower limit [1] [ppt]","concentration at which the compound masks the p-cresol odor and does not affect the citrus flavor, upper limit [1]",effect of suppressing the response of OR9Q2 to p-cresol (olfactory receptor OR9Q2),p-Cresol Odor Intensity ([1]; 0.01 ppt added) [points],p-Cresol Odor Intensity ([1]; 0.1 ppt added) [points],p-Cresol Odor Intensity ([1]; 1 ppt added) [points],further results
"CCc1occc(=O)c1O [Ethyl Maltol, ethyl maltol]",2.3,1.4,2.0,1.3,3.7,1.6,0.4,2.7,≥ 100,≤ 10 ppm,suppressing the response of OR9Q2 to p-cresol in a concentration-dependent manner,–,–,–,–
"O=C1CCCCCCC/C=C\CCCCCCO1 [Isoambrettolide, isoambrettolide]",1.3,–,1.3,–,2.1,0.9,–,1.6,≥ 0.1,≤ 1 ppb,suppressing the response of OR9Q2 to p-cresol in a concentration-dependent manner,3.7,2.7,2.4,"p-Cresol Odor Intensity ([2]; 4 ppb added): 2.5 points; p-Cresol Odor Intensity ([2]; 40 ppb added): 1.8 points; p-Cresol Odor Intensity ([2]; 40 ppt added): 3.0 points; p-Cresol Odor Intensity ([2]; 400 ppb added): 1.5 points; p-Cresol Odor Intensity ([2]; 400 ppt added): 2.7 points; concentration at which the compound masks the p-cresol odor and does not affect the citrus flavor, lower limit [2, 3]: ≥ 400 ppt; concentration at which the compound masks the p-cresol odor and does not affect the citrus flavor, upper limit [2, 3]: ≤ 400 ppb"
"C[C@@H]1CCCCCCCCCCCCC(=O)C1 [Muscone, muscone]",0.9,–,0.4,–,1.9,0.3,–,1.7,≥ 0.01,≤ 1 ppb,suppressing the response of OR9Q2 to p-cresol in a concentration-dependent manner,2.7,2.4,2.1,p-Cresol Odor Intensity ([1]; 0.001 ppt added): 3.7 points
"CC1(C)CCC[C@]2(C)[C@H]3CC(=O)O[C@]3(C)CC[C@@H]12 [Sclareolide, sclareolide]",2.1,1.0,1.9,0.4,3.6,1.1,–,2.6,≥ 100,≤ 1 ppm,suppressing the response of OR9Q2 to p-cresol in a concentration-dependent manner,–,–,–,–
"C=C1CC[C@H]2O[C@]2(C)CC[C@@H]2[C@@H]1CC2(C)C [β-caryophyllene Oxide, β-caryophyllene oxide]",2.1,1.0,1.7,1.0,3.9,1.6,0.4,2.6,≥ 100,≤ 1 ppm,suppressing the response of OR9Q2 to p-cresol in a concentration-dependent manner,–,–,–,–
"CCCCCC1CC=CC(=O)O1 (stereo not shown) [δ-2-Decenolactone, δ-2-decenolactone]",2.3,1.3,2.0,0.7,2.7,1.6,–,2.4,≥ 10,≤ 100 ppb,suppressing the response of OR9Q2 to p-cresol in a concentration-dependent manner,–,–,3.9,–
